Experimental data from PMC10998878, “Inhibition of acyl-CoA binding protein (ACBP) by means of a GABAARγ2-derived peptide” (Cell Death & Disease, 2024).
Entries after “also recorded” stand apart in the source; their conditions may differ.

How the values were obtained:
C57BL/6 mice = assay: Concanavalin A-induced acute liver injury; type: in vivo, mouse; conditions: C57BL/6 male mice, peptide 5 mg/kg i.v. 90 min before concanavalin A 12 mg/kg i.v.
Experimental: GABAARγ2 peptides (5 mg/kg, i.v., dissolved in DMSO) were injected in 12-week-old C57BL/6 male mice 90 min before the injection of 12 mg/kg Concanavalin A (ConA, i.v., Sigma Aldrich, # C5275).
Fig. 7 In vivo inhibition of ACBP/DBI function by the GABAARγ2-derived eicosapeptide. A, B Appetite stimulation by ACBP/DBI. RecACBP/DBI alone or combined with GABAARγ2-derived eicosapeptides (EP) (WT or F77I) was administered in vivo by intravenous (i.v.) injection and individual cumulative food intake was measured after 30 min. GABAARγ2 peptides are represented as blue stars, while murine RecACBP/DBI is represented as red circles (A). […] C, D Immunoblots and densitometric quantification of LC3 lipidation in liver tissues from mice treated with GABAARγ2-derived eicosapeptides (EP) WT with or without the autophagy flux inhibitor leupeptin (n = 5 mice per group). p values were calculated by unpaired one-tailed Student’s t-test. E–G Inhibition of concanavalin A hepatotoxicity. GABAARγ2 WT peptide (or negative vehicle) was i.v. injected to C57BL/6 male mice followed by concanavalin A (or negative vehicle) administration 1.5 h later (E). Alanine transaminase (ALT) (F) and aspartate transaminase (AST) (G) activity in plasma was analyzed by means of a colorimetric assay (n = 7–9 mice per condition). p values were calculated by unpaired one-tailed Student’s t-test. ns: non-significant. Unt: Untreated.

Huh-7 cells = assay: WST-8 conversion (metabolic activation) by Huh-7 cells; type: cell-based, human; conditions: RecACBP/DBI pre-incubated overnight with eicosapeptide, 4 h
Experimental: Media and cell culture supplements were purchased from Gibco-Invitrogen (Carlsbad, CA, USA). Plasticware was purchased from Corning B.V. Life Sciences (Schiphol-Rijk, The Netherlands). Unless reported otherwise, the cell line used in this study was cultured at standard conditions (37 °C, 5% CO2, Dulbecco’s modified Eagle’s medium containing 10% fetal bovine serum, 10 mM HEPES buffer, 100 mg/L sodium pyruvate, 100 U/mL penicillin G sodium, and 100 µg/mL streptomycin sulfate). 2-deoxy-D-glucose (# D8375) and rotenone (# R8875) were purchased from Sigma (Burlington, MA, USA). Human hepatocellular carcinoma (Huh-7) cell line was used for in vitro experiments. Cells were plated in 6- or 96-well plates and grown for 24 h before treatments.
WST-8 conversion assays were conducted utilizing the Cell Counting Kit-8 (Sigma-Aldrich, #96992). Cells were seeded in a 96-well plate at a density of 3000 cells per well and incubated overnight for adherence. Then, the culture medium was removed, and fresh medium containing the specified treatments was added to the wells. Immediately following the addition of treatments, 10 μL of CCK-8 reagent was introduced to each well. Subsequently, the cells were incubated for 4.5 h at 37 °C to facilitate the conversion of WST-8 in response to cellular activity. Following the incubation period, the absorbance at 450 nm was quantified using a VICTOR® Nivo™ microplate reader. This measurement served as an indicator of WST-8 conversion, reflecting cellular metabolic activity.
Fig. 6 Inhibition of the metabolic effects of ACBP/DBI on hepatocytes by the GABAARγ2-derived eicosapeptide. A WST-8 conversion by murine primary hepatocytes treated with increasing concentrations of recombinant ACBP/DBI protein (RecACBP/DBI) for 4 h. Hepatocytes were isolated from tamoxifen-induced Acbp/Dbi f/f or Acbp/Dbi KO full-body genetic background mice (white- or blue-colored graphs respectively). […] For statistical analysis p values are calculated by one-way ANOVA. B WST-8 conversion by control (shUNR) and ACBP/DBI-knocked down (shACBP/DBI) human Huh-7 cells treated with increasing concentrations of RecACBP/DBI for 4 h. shUNR and shACBP/DBI cells are represented by white- or blue-colored graphs respectively. […] C WST-8 conversion by Huh-7 cells treated with RecACBP/DBI or negative control (4 h). Cells were pre-treated with 2-deoxy-D-glucose (2-Deoxy-D-glu; 300 µM) or vehicle (2 h). […] D WST-8 conversion by Huh-7 cells treated with RecACBP/DBI or negative control (4 h). Cells were pre-treated with rotenone (0.5 µM) or vehicle (2 h). […] E WST-8 conversion by Huh-7 cells treated with RecACBP/DBI or negative control (4 h). Prior to administration, RecACBP/DBI was overnight pre-incubated with monoclonal antibody (α-ACBP/DBI) or isotype IgG1. […] F WST-8 conversion by Huh-7 cells treated with RecACBP/DBI or negative control (4 h). Prior to administration, RecACBP/DBI was overnight pre-incubated with GABAARγ2 (WT or F77I-mutated) eicosapeptides.

With INMEYTIDIFFAQTWYDRRL [GABAARγ2-EP-WT] the “protection against concanavalin A hepatotoxicity, in words” value (C57BL/6 mice) was “attenuate acute hepatotoxicity induced by concanavalin A”, the “plasma alanine aminotransferase (ALT) after concanavalin A” value (C57BL/6 mice; n = 7–9) was “significantly blunted the surge” and the “plasma aspartate aminotransferase (AST) after concanavalin A” value (C57BL/6 mice; n = 7–9) was “significantly blunted the surge”. For the same sequence, the “protection against concanavalin A hepatotoxicity, in words” value (C57BL/6 mice; listed as GABAARγ2-derived eicosapeptide) was “protected mice against the hepatotoxin concanavalin A”, the “inhibition of RecACBP/DBI-stimulated WST-8 conversion (eicosapeptides)” value (Huh-7 cells; n = 3) was “inhibited the ACBP/DBI-stimulated metabolic activation of Huh7 cells; also recorded: efficiently blocked the effects of recombinant human ACBP/DBI protein on human hepatocytes” and the “inhibition of RecACBP/DBI-stimulated WST-8 conversion (eicosapeptides)” value (Huh-7 cells; n = 3, listed as GABAARγ2-derived eicosapeptide) was “inhibited the metabolic activation of hepatocytes by recombinant ACBP/DBI protein in vitro”.
